Assay results as given in patent publication US7094801B2, “Chalcone derivatives and their use to treat diseases” (Atherogenics, Inc., priority 2001, dated 2006).

Assays:
[1] = tested on: VCAM-1; assay: In Vitro VCAM-1 Assay (TNF-α stimulated HAEC or HPAEC, cell ELISA); type: cell-based, human; settings: Homo sapiens, 16 h, TNF-α (1 ng/ml) stimulated HAEC or HPAEC, approximately 16 hours
In short: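 Primary human aortic or pulmonary endothelial cells (below passage 9) stimulated with TNF-α (1 ng/ml) plus compound (four concentrations, ≤0.25% DMSO) for about 16 h. Surface VCAM-1 detected by cell ELISA (HRP/TMB, OD 450 nm). IC50 taken as the concentration giving 50% inhibition of the TNF-α-only response.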

[2] = tested on: Balb/C mice; assay: Asthma Protocol (ovalbumin sensitized and challenged mice, bronchoaveolar lavage); type: in vivo, mouse; settings: sc, daily dosing at 100 mg/kg from day 0–13, lavage fluid
Experimental: Balb/C mice (6–8 weeks old) are sensitized to ovalbumin (ova) (8 ug ova absorbed in 3.3 mg Alum inject) on days 0 and 5. On day 12, the mice were aerosol challenged with 0.5% ovalbumin dissolved in sterile saline for 1 hr in the AM, and then again in the PM (at least 4 hr apart). On day 14, the mice were anesthetized with ketamine/xylazine/acepromazine cocktail, exsanguinated, and then euthanized. Following blood collection, bronchoaveolar lavage was performed on each animal. Total cell counts were conducted on the lavage fluid, which was subsequently diluted with cell media 1:1. Slides of the lavage fluid were made by spinning the samples with a cytospin centrifuge. Slides were airdried and stained with x. Cell differentials of the lavage fluid were completed at the conclusion of the study. All compounds except Example 2 were well tolerated with no body weight loss throughout the course of the study. Statistical analysis involved ANOVA and Tukey-Kramer post hoc tests. Compounds were administered except where noted by subcutaneous injection once daily from day 0–13. The formulations used contained various mixtures of the following excipients (pharmasolve, cremophor RH 40, tween 80, PEG 300). See Biological Table 3

| Structure (SMILES) | IC50 [1] | melting point | % Inhibition [2] |
| --- | --- | --- | --- |
| Cl.O=C(O)c1ccc(C(=O)/C=C/c2cc(-c3cccs3)ccc2OCCCN2CCOCC2)cc1 [Example 65, 4-{3E-[2-(3-Morpholin-4yl-propoxy)-5-thiophen-2-yl-phenyl]-acryloyl}-benzoic acid, hydrochloride] | < 1 µM | 234 to 236 °C | – |
| COc1cc(OCC(CO)CO)c(-c2cccs2)cc1/C=C/C(=O)c1ccc(C(=O)O)cc1 [Example 50, 4-{3E-[4-(3-Hydroxy-2-hydroxymethyl-propoxy)-2-methoxy-5-thiophen-2-yl-phenyl]-acryloyl}-benzoic acid] | > 10 µM | 199 to 201 °C | – |
| COc1cc(/C=C/C(=O)c2ccc3[nH]ccc3c2)cc(-c2cccs2)c1OC [Example 27, 3E-(3,4-Dimethoxy-5-thiophen-2-yl-phenyl)-1-(1H-indol-5-yl)-propenone] | < 5 µM | 184.5 to 186 °C | – |
| COc1ccc(/C=C/C(=O)c2ccc(C(=O)O)cc2)c(-c2cccs2)c1 [Example 34, 4-[3E-(4-Methoxy-2-thiophen-2-yl-phenyl)-acryloyl]-benzoic acid] | > 10 µM | 209 to 211 °C | – |
| COc1cc(OCC(CO)CO)c(-c2cccs2)cc1/C=C/C(=O)c1ccc(S(N)(=O)=O)cc1 [Example 106, 4-{3E-[4-(3-Hydroxy-2-hydroxymethyl-propoxy)-2-methoxy-5-thiophen-2-yl-phenyl]-acryloyl}-benzenesulfonamide] | < 10 µM | 191 to 192 °C | – |
| COc1cc(OC)c(-c2cc3ccccc3[nH]2)cc1/C=C/C(=O)c1ccc(C(=O)O)cc1 [Example 61, 4-{3E-[5-(1H-Indol-2-yl)-2,4-dimethoxy-phenyl]-acryloyl}-benzoic acid] | < 1 µM | 210 to 212 °C | – |
| COc1cc(OCCN2CCOCC2)c(/C=C/C(=O)c2ccc(C(N)=O)cc2)cc1-c1cccs1 [Example 92, 4-{3E-[4-Methoxy-2-(2-morpholin-4-yl-ethoxy)-5-thiophen-2-yl-phenyl]-acryloyl}-benzamide] | < 1 µM | 183 to 184 °C | – |
| COc1cc(/C=C/C(=O)c2ccc(N)cc2)cc(-c2cccs2)c1OC [Example 11, 1-(4-Amino-phenyl)-3E-(3,4-dimethoxy-5-thiophen-2-yl-phenyl)-propenone] | < 5 µM | 67 to 71 °C | – |
| COc1cc(OCCCN2CCOCC2)c(/C=C/C(=O)c2ccc(S(N)(=O)=O)cc2)cc1-c1cccs1 [Example 85, 4-{3E-[4-Methoxy-2-(3-morpholin-4-yl-propoxy)-5-thiophen-2-yl-phenyl]-acryloyl}-benzenesulfonamide] | < 1 µM | 193 to 196 °C | – |
| COc1cc(OC)c(-c2ccc(C)s2)cc1/C=C/C(=O)c1ccc(C(=O)O)cc1 [Example 40, 4-{3E-[2,4-Dimethoxy-5-(5-methyl-thiophen-2-yl)-phenyl]-acryloyl}-benzoic acid] | < 1 µM | 213 to 215 °C | – |
| COc1cc(O)c(-c2cccs2)cc1/C=C/C(=O)c1ccc(C(=O)O)cc1 [Example 54, 4-[3E-(4-Hydroxy-2-methoxy-5-thiophen-2-yl-phenyl)-acryloyl]-benzoic acid] | < 10 µM | 243 °C (dec.) | – |
| COc1cc(OCC(=O)N(C)C)c(/C=C/C(=O)c2ccc(C(=O)O)cc2)cc1-c1cccs1 [Example 67, 4-[3E-(2-Dimethylcarbamoylmethoxy-4-methoxy-5-thiophen-2-yl-phenyl)-acryloyl]-benzoic acid] | < 10 µM | 228 to 229 °C | – |
| COc1cc(OC)c(-c2nc3ccccc3[nH]2)cc1/C=C/C(=O)c1ccc(C(=O)O)cc1.Cl [Example 70, 4-{3E-[5-(1H-Benzoimidazol-2-yl)-2,4-dimethoxy-phenyl]-acryloyl}-benzoic acid] | < 5 µM | > 240 °C (dec.) | – |
| COc1cc(OC)c(-c2cc3ccccc3n2C(=O)OC(C)(C)C)cc1/C=C/C(=O)c1ccc(C(=O)O)cc1 [Example 36, 2-{5-[3-(4-Carboxy-phenyl)-3-oxo-E-propenyl]-2,4-dimethoxy-phenyl}-indole-1-carboxylic acid tert-butyl ester] | < 5 µM | 182 to 183 °C | 71% |
| CCOC(=O)CNC(=O)Nc1ccc(C(=O)/C=C/c2ccc(-c3cccs3)cc2)cc1 [Example 15, (3-{4-[3E-(4-Thiophen-2-yl-phenyl)-acryloyl]-phenyl}-ureido)-acetic acid ethyl ester] | > 10 µM | 209 to 212 °C | – |
| COc1cc(OC)c(-c2c[nH]c(C3CC3)n2)cc1/C=C/C(=O)c1ccc(S(N)(=O)=O)cc1 [Example 111, 4-{3E-[5-(2-Cyclopropyl-1H-imidazol-4-yl)-2,4-dimethoxy-phenyl]-acryloyl}-benzenesulfonamide] | > 10 µM | 156 to 160 °C | – |
| COc1cc(OC)c(-c2cc3ccccc3s2)cc1/C=C/C(=O)c1ccc(N)cc1 [Example 13, 1-(4-Amino-phenyl)-3E-(5-benzo[b]thiophen-2-yl-2,4-dimethoxy-phenyl)-propenone] | < 5 µM | 98 to 104 °C | – |

More lines, main results first:

| IC50 [1] | melting point | Structure (SMILES) | % Inhibition [2] |
| --- | --- | --- | --- |
| < 5 µM | 185 to 187 °C | Nc1ccc(C(=O)/C=C/c2ccc(-c3cccs3)cc2)cc1 [Example 12, 1-(4-Amino-phenyl)-3E-(4-thiophen-2-yl-phenyl)-propenone] | – |
| < 1 µM | 120 to 122 °C | COc1cc(OC)c(-c2cc3ccccc3n2C(=O)OC(C)(C)C)cc1/C=C/C(=O)c1ccc(S(N)(=O)=O)cc1 [Example 83, 2-{2,4-Dimethoxy-5-[3-oxo-3-(4-aminosulfonyl-phenyl)-E-propenyl]-phenyl}-indole-1-carboxylic acid tert-butyl ester] | – |
| > 10 µM | 135 to 137 °C | COc1cc(OC(C)(C)C(=O)O)c(-c2cccs2)cc1/C=C/C(=O)c1ccc(C(=O)O)cc1 [Example 47, 4-{3E-[4-(1-Carboxy-1-methyl-ethoxy)-2-methoxy-5-thiophen-2-yl-phenyl]-acryloyl}-benzoic acid] | – |
| < 5 µM | 123 to 124 °C | COc1cc(OCC(CO)CO)c(/C=C/C(=O)c2ccc(S(N)(=O)=O)cc2)cc1-c1cccs1 [Example 86, 4-{3E-[2-(3-Hydroxy-2-hydroxymethyl-propoxy)-4-methoxy-5-thiophen-2-yl-phenyl]-acryloyl}-benzenesulfonamide] | 48% |
| < 5 µM | 238 °C (dec.) | O=C(O)c1ccc(C(=O)/C=C/c2cccc(-c3cccs3)c2)cc1 [Example 42, 4-[3E-(3-Thiophen-2-yl-phenyl)-acryloyl]-benzoic acid] | – |
| > 10 µM | 219 to 220 °C | COc1cc(OCC(CO)CO)c(/C=C/C(=O)c2ccc(C(=O)O)cc2)cc1-c1cccs1 [Example 64, 4-{3E-[2-(3-Hydroxy-2-hydroxymethyl-propoxy)-4-methoxy-5-thiophen-2-yl-phenyl]-acryloyl}-benzoic acid] | – |
| < 5 µM | 83 to 86 °C | CCOC(=O)CNC(=O)N(C(=O)NCC(=O)OCC)c1ccc(C(=O)/C=C/c2cc(OC)c(OC)c(-c3cccs3)c2)cc1 [Example 16, (3-[Ethoxycarbonylmethylaminocarbonyl]-3-{4-[3E-(3,4-dimethoxy-5-thiophen-2-yl-phenyl)-acryloyl]-phenyl}-ureido)-acetic acid ethyl ester] | – |
| < 10 µM | 174 to 175 °C | COCCOCCOc1cc(OC)c(/C=C/C(=O)c2ccc(C(=O)O)cc2)cc1-c1cccs1 [Example 49, 4-(3E-{2-Methoxy-4-[2-(2-methoxy-ethoxy)-ethoxy]-5-thiophen-2-yl-phenyl}-acryloyl)-benzoic acid] | – |
| > 10 µM | 125 °C (dec.) | COc1cc(O)c(/C=C/C(=O)c2ccc(C(=O)O)cc2)cc1-c1cccs1 [Example 58, 4-[3E-(2-Hydroxy-4-methoxy-5-thiophen-2-yl-phenyl)-acryloyl]-benzoic acid] | – |
| < 5 µM | 213 to 215 °C | COc1cc(OCc2c(C)noc2C)c(/C=C/C(=O)c2ccc(C(=O)O)cc2)cc1-c1cccs1 [Example 62, 4-{3E-[2-(3,5-Dimethyl-isoxazol-4-ylmethoxy)-4-methoxy-5-thiolphen-2-yl-phenyl]-acryloyl}-benzoic acid] | – |
| < 5 µM | 187 to 191 °C | COc1cc(OCC2CC2)c(/C=C/C(=O)c2ccc(C(=O)O)cc2)cc1-c1cccs1 [Example 32, 4-[3E-(2-Cyclopropylmethoxy-4-methoxy-5-thiophen-2-yl-phenyl)-acryloyl]-benzoic acid] | – |
